Reference: US20240217973A1, “IMIDAZOPYRIDINE COMPOUNDS AND USE THEREOF” (MEDSHINE DISCOVERY INC., priority 2021, published 2024)

Target: BTK kinase (Homo sapiens (Human), UniProt Q06187)
Assay: BTK kinase experiment (ADP-Glo)
Assay type: biochemical
Details: 2 μM ATP, PolyE4Y1 substrate, 30 minutes pre-incubation
Description: BTK kinase, PolyE4Y1 substrate and Kinase assay buffer III were purchased from Signalchem; ADP-Glo Kinase Assay was purchased from Promega; Nivo multi-label analyzer (PerkinElmer).
1× buffer preparation (which was prepared and used immediately): Kinase assay buffer III was diluted with ddH2O to 1× assay buffer for later use.
The compound to be tested was diluted with 100% DMSO to 10 μM as the first concentration, and followed by a 5-fold dilution to the 8th concentration using a multi-channel pipette, i.e., it was diluted from 10 μM to 0.128 nM.
Each gradient of the compound to be tested was diluted into a working solution with 5% DMSO using 1× buffer, 1 μL/well was added to the corresponding well, and a double-replicate well experiment was set up. 2 μL of BTK enzyme (4 ng) was add to each well and incubating at 25° C. for 30 minutes. After the incubation was completed, 2 μL of a mixture of substrate and ATP (2 μM ATP, 0.2 μg/μL PolyE4Y1) was added to each well and incubating at 25° C. for 120 minutes. At this point, the final concentration gradient of the compound was diluted from 100 nM to 0.00128 nM. After the reaction was completed, 5 μL of ADP-Glo reagent was added to each well, and the reaction continued at 25° C. for 40 minutes. After the reaction was completed, 10 μL of kinase detection reagent was added to each well. After reacting at 25° C. for 30 minutes, PerkinElmer Nivo multi-label analyzer was used to read the chemiluminescence, and the integration time was 0.5 seconds.
Raw data was converted into inhibition rate using the equation: (Sample−Min)/(Max−Min)*100%. The IC50 value could then be derived by performing a curve fit using four-parameter (which was obtained using the “log(inhibitor) vs. response-Variable slope” mode in GraphPad Prism).

Chain of BTK kinase (Q06187 whole entry): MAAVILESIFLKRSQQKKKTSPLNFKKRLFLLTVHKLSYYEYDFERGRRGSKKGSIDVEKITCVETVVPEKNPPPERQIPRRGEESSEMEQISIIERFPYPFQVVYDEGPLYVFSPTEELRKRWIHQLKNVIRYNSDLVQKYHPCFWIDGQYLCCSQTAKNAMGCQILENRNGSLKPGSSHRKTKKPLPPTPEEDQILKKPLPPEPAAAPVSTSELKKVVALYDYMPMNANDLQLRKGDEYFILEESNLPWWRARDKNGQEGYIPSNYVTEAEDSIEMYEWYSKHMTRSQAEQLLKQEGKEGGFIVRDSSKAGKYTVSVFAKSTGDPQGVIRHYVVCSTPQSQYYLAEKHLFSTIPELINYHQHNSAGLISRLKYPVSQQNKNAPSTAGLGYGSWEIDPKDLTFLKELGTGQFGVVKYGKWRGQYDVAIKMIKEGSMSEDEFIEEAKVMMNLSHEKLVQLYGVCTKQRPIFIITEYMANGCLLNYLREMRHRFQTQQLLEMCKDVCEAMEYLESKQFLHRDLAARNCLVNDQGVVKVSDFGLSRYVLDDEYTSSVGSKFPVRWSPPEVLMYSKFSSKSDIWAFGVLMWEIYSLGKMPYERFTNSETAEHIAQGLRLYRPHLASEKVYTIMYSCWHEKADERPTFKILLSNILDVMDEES

Compound | IC50 [nM]
C=CC(=O)N1CCC[C@@H](n2c(=O)n(-c3ccc(CNC(=O)c4cc(F)ccc4OC)cc3)c3c(N)nccc32)C1 [Compound 001] | 0.71
Nc1nccc2c1n(-c1ccc(Oc3ccc(Cl)cn3)cc1)c(=O)n2[C@@H]1CCCN(C(=O)/C=C/CF)C1 [Compound 007] | 16
Nc1nccc2c1n(-c1ccc(Oc3ccc(F)cn3)cc1)c(=O)n2[C@@H]1CCCN(C(=O)/C=C/CF)C1 [Compound 008] | 36.5
Nc1nccc2c1n(-c1ccc(Oc3c(F)cccc3F)cc1)c(=O)n2[C@@H]1CCCN(C(=O)/C=C/CF)C1 [Compound 005] | 2.85
Nc1nccc2c1n(-c1ccc(Oc3ccc(Br)cn3)cc1)c(=O)n2[C@@H]1CCCN(C(=O)/C=C/CF)C1 [Compound 006] | 13.6
COc1cccc(Oc2ccc(-n3c(=O)n([C@@H]4CCCN(C(=O)/C=C/CF)C4)c4ccnc(N)c43)cc2)c1F [Compound 004] | 2.46
Nc1nccc2c1n(-c1ccc(Oc3ccccc3)c(F)c1)c(=O)n2[C@@H]1CCCN(C(=O)/C=C/CF)C1 [Compound 009] | 2.8
Nc1nccc2c1n(-c1ccc(Oc3ccccc3)c(Cl)c1)c(=O)n2[C@@H]1CCCN(C(=O)/C=C/CF)C1 [Compound 011] | 1.57
Cc1cc(-n2c(=O)n([C@@H]3CCCN(C(=O)/C=C/CF)C3)c3ccnc(N)c32)ccc1Oc1ccccc1 [Compound 010] | 3.04
